# Data taken from ChEMBL document CHEMBL3301562, “MMV Box screening against Plasmodium falciparum protein kinases and aminoacyl tRNA synthetases”.
# Legend:
# Assay type in all cases: functional
# [1] = biological target: Calcium-dependent protein kinase 1 (Plasmodium falciparum, UniProt P62344); test: MMV: CDPK1 Protein kinase inhibition assay using recombinant PfCDPK1, syntide 2 peptide substrate, ATP and KinaseGlo to measure % inhibition at 1 uM MMV box compound.
# Proline--tRNA ligase = biological target: T1, Proline--tRNA ligase (Plasmodium falciparum (isolate 3D7), UniProt Q8I5R7); test: MMV: ProRS recombinant Plasmodium falciparum Prolyl-tRNA-synthetase, assay with yeast tRNA, ATP, and proline and 3 uM MMV malaria box compound, assay read out with kinase glo as % inhibition.
# T1 sequence (Q8I5R7 whole entry): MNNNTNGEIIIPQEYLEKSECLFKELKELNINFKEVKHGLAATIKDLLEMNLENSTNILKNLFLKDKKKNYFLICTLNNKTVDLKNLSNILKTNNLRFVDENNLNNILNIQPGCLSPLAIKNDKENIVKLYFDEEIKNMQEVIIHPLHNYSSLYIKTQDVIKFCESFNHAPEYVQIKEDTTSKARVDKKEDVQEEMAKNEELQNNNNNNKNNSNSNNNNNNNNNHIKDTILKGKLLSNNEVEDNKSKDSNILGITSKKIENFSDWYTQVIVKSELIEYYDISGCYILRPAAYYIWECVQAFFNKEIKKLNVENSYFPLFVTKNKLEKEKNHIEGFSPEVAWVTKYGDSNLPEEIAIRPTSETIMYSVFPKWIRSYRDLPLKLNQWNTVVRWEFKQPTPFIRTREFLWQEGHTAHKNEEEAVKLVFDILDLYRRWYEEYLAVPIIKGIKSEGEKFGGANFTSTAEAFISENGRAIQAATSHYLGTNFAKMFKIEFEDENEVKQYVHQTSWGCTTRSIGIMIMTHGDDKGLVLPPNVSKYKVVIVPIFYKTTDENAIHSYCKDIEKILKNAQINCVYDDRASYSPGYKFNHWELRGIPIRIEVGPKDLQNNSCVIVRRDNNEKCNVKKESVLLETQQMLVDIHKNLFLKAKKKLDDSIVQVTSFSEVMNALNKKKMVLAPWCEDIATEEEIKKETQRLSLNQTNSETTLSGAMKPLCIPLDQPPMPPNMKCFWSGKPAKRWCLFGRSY
# [2] = biological target: T2, Cdk-related protein kinase 6 (Plasmodium falciparum, UniProt O77239); test: Final concentrations were 1.5 uM ATP, 5 mM MnCl2, and 15 ug/ml PK6 in a buffer of 100 mM Tris-HCl (pH 7.5). 50 ug/mL MBP was provided as the substrate; 10 uM staurosporine was used as a control inhibitor. Incubation time was 3 hours and 40 minutes.The catalytic activity of each kinase was considered proportional to ATP consumed, as determined from measurements of residual [ATP] with the luciferase-based reagent Kinase-Glo (Promega) following incubation. Luminescence (proportional to residual [ATP]) was measured on the plate readers FLx800 (BioTek Instruments, Winooski, VT, USA) and MicroBeta2.
# T2 sequence (O77239 whole entry): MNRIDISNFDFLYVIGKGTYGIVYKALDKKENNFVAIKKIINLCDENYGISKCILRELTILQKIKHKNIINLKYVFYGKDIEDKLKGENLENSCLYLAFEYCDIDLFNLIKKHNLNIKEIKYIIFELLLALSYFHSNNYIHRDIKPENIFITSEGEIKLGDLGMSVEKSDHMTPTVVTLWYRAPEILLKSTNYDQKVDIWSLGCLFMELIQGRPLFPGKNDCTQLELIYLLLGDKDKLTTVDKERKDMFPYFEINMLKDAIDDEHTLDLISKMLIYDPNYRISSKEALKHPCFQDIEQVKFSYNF
# [3] = biological target: T3, Mitogen-activated protein kinase (Plasmodium falciparum, UniProt Q25917); test: Final concentrations were 1 uM ATP, 0.5 mM DTT, 1 mM MgCl2, 0.5 mg/mL BSA, and 10 ug/ml MAP2 in a buffer of 50 mM HEPES (pH 7.0). 0.5 mg/mL histone III-S served as the substrate (13); 100 uM AMP-PNP, an ATP analog, was used as a control inhibitor. Incubation time was 4 hours.
# T3 sequence (Q25917 whole entry): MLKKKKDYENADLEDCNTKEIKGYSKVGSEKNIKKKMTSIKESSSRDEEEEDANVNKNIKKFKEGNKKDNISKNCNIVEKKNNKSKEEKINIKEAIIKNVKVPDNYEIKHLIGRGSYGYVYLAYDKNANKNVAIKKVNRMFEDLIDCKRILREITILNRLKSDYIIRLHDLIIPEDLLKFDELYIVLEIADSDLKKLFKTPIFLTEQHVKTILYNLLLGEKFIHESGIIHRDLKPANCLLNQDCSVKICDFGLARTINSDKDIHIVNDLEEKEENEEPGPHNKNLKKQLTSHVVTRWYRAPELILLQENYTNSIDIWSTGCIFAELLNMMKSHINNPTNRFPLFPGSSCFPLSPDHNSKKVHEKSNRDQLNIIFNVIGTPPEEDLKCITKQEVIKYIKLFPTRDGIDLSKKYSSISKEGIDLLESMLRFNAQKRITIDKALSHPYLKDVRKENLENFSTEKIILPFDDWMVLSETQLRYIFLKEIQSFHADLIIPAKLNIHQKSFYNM
# Lysine--tRNA ligase = Lysine--tRNA ligase (Plasmodium falciparum (isolate 3D7), UniProt Q8IDJ8); test: MMV: KRS recombinant Plasmodium falciparum Lysyl-tRNA-synthetase, assay with yeast tRNA, ATP, and lysine and 3 uM MMV malaria box compound, assay read out with kinase glo as % inhibition.
# Chain of Lysine--tRNA ligase (Q8IDJ8 whole entry): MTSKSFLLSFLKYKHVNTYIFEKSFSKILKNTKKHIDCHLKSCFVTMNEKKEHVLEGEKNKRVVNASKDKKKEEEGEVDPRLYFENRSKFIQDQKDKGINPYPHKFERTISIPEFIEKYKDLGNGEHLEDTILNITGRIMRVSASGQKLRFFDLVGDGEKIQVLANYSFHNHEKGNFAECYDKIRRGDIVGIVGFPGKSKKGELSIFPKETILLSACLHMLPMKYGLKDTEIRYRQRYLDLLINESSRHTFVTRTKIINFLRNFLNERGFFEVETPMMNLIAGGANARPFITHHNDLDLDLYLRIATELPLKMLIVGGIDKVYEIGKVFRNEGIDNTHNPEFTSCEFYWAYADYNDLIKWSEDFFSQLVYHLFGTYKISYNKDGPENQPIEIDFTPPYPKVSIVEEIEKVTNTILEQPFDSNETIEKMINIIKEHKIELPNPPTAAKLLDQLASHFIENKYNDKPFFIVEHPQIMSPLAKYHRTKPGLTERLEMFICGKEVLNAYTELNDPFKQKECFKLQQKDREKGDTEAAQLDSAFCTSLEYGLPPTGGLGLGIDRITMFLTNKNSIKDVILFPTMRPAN
# [4] = biological target: T4, Calcium-dependent protein kinase 4 (Plasmodium falciparum (isolate 3D7), UniProt Q8IBS5); test: MMV: CDPK4 Protein kinase inhibition assay using recombinant PfCDPK4, syntide2 peptide substrate, ATP and KinaseGlo to measure % inhibition at 1 uM MMV box compound.
# T4 sequence (Q8IBS5 whole entry): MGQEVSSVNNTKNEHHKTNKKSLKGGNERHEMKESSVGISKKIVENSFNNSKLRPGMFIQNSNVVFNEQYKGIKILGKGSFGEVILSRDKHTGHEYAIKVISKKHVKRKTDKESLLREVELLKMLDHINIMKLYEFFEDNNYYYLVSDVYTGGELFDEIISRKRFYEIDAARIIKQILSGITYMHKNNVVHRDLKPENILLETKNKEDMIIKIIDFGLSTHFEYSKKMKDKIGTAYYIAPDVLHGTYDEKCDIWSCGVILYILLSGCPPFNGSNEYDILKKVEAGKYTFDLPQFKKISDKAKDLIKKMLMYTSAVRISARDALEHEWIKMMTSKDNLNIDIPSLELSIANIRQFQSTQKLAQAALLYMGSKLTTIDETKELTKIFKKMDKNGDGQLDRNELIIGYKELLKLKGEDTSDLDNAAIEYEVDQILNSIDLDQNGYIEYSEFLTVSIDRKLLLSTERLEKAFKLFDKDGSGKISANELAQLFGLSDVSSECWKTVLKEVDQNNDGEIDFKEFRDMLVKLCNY
# [5] = biological target: T5, Putative uncharacterized protein pk7 (Plasmodium falciparum, UniProt O96214); test: Final concentrations were 1 uM ATP, 2 mM DTT, 20 mM MgCl2, 2 mM MnCl2, 0.01% BSA, and 6 ug/ml PK7, in a buffer of 20 mM Tris-HCl (pH 7.5). The enzyme itself was the only substrate present (since autophosphorylation occurs); 100 uM 1NA-PP1 was used as a control inhibitor. Incubation time was 3 hours.
# T5 sequence (O96214 whole entry): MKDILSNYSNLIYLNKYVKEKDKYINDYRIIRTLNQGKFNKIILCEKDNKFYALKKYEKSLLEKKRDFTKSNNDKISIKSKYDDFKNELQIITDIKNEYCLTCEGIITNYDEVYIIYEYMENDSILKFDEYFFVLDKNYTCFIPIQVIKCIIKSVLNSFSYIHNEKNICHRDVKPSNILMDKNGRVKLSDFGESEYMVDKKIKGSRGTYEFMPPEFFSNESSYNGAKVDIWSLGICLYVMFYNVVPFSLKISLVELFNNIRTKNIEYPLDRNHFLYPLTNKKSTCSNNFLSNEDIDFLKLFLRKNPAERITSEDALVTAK
# Chain of Calcium-dependent protein kinase 1 (P62344 whole entry): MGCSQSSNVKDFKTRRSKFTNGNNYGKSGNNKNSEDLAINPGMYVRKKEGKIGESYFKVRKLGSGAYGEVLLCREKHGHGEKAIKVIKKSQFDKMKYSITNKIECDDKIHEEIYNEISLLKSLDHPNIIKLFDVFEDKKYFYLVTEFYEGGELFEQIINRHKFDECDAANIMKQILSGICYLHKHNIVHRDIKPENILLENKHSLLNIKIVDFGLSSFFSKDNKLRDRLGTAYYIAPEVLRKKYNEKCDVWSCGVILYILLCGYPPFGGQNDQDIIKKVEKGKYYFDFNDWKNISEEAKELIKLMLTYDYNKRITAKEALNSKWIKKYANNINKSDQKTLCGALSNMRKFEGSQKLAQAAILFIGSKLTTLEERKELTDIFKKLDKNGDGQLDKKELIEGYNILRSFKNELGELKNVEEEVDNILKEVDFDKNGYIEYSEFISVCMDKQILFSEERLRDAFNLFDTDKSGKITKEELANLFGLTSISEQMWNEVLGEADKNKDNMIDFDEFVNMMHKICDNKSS
Structure (SMILES),IC50 [1] [nM],IC50 (Proline--tRNA ligase) [nM],IC50 [2] [nM],IC50 [3] [nM],IC50 (Lysine--tRNA ligase) [nM],IC50 [4] [nM],IC50 [5] [nM]
O=C(Nc1ccc(-c2nc3cc4ccccc4cc3[nH]2)cc1)c1cccc(Br)c1,> 1000,> 2500,> 1000,> 1000,> 2500,> 1000,> 1000
Cc1ccc(-c2nc3ccccc3o2)cc1NCc1cc(Cc2ccccc2)ccc1O,> 1000,> 2500,> 1000,> 1000,> 2500,> 1000,> 1000
COc1ccc(C(O)(CCC(C)C)C(CN2CCOCC2)c2ccc(Cl)cc2)cc1 (configuration not stated),> 1000,> 2500,> 1000,> 1000,> 2500,> 1000,> 1000
CCCOCc1cc(CN2CCN(c3cccc(Cl)c3)CC2)c(O)c2ncccc12,> 1000,> 2500,> 1000,> 1000,> 2500,> 1000,> 1000
COc1ccc(C(=O)NC(c2ccccc2Cl)c2cc(Cl)c3cccnc3c2O)cc1 (configuration not stated),> 1000,> 2500,> 1000,> 1000,> 2500,> 1000,> 1000
Cc1ccc(F)cc1NC(=O)c1cc(Cl)ccc1Nc1ccccc1,> 1000,> 2500,> 1000,> 1000,> 2500,> 1000,> 1000
CCCCCCc1cc2cc(-c3nc4ccccc4[nH]3)c(=Nc3ccccc3C)oc2cc1O,> 1000,> 2500,> 1000,> 1000,> 2500,> 1000,> 1000
CCCCCCC(O)(c1ccc(F)cc1)C(CN1CCOCC1)c1ccccc1 (configuration not stated),> 1000,> 2500,> 1000,> 1000,> 2500,> 1000,> 1000
COc1cc(OC)cc(N2C(=O)N(Cc3ccc(C(C)(C)C)cc3)c3ccccc3S2(=O)=O)c1,> 1000,> 2500,> 1000,> 1000,> 2500,> 1000,> 1000
CCOc1c(Br)cc(C2C(C(=O)OC)=CN(C)C=C2C(=O)OC)cc1OC,> 1000,> 2500,> 1000,> 1000,> 2500,> 1000,> 1000
CCOC(=O)c1c[nH]c2c(CC)cccc2c1=O,> 1000,> 2500,> 1000,> 1000,> 2500,> 1000,> 1000
